Assay results as given in patent publication US20240016875A1, “SHAN-ZHA FOR THE TREATMENT OF DEPRESSION AND ANXIETY DISORDERS” (THE OPEN UNIVERSITY, priority 2020, published 2024).
“Also recorded” adds a separate entry of the source.

Test system: 21 days old pups
Experiment: EPM in 21 days old pups treated via lactation
Assay type: in vivo, mice
Method: The EPM task was performed as previously described. Shortly, each mouse was placed in the center of the maze and video recorded for 5 min. Anxiety-like behavior was expressed as the time the mouse spent in the open, unprotected arms of the maze.
Female (n=40) and male (n=5) ICR outbred mice (100 days old; Envigo RMS, Jerusalem, Israel) were housed at 22±1° C. under 12 h light/dark cycles in the vivarium of the Open University lab in Hadassah medical center, Jerusalem. Mice had ad libitum access to rodent chow and water. Mice were housed in standard cages with a bed of woodchips and a piece of cotton wool for enrichment. All experiments were performed during the dark phase of the cycle. Male mice were used to father pups and were housed apart (5 per cage) from females until mating. […] Once a vaginal plug was identified, the females were transferred to a separate cage until parturition. Overall, 455 pups were delivered of which 317 (male: n=165; female: n=152) were designated for this study. Unassessed pups were maintained with littermates to avoid additional stress and ensure similar conditions. […]
Following mating, dams were separated to individual cages and were observed periodically to ensure onset of pregnancy. […] Shortly after, anxiety-like behavior was assessed on the EPM and dams were assigned to treatment group (escitalopram/shan-zha/vehicle). […]

CN(C)CCC[C@@]1(c2ccc(F)cc2)OCc2cc(C#N)ccc21 [escitalopram]
stress-induced anxiety-like behavior within treatment group, pups (PND21, stressed vs naive pups): No similar stress-induced anxiety-like behavior was observed | anxiety-like behavior in the EPM, treated stressed pups vs saline-treated stressed pups (PND21, prenatal stress, treatment via lactation, dams 15 mg/kg s.c. daily): saline-treated stressed pups demonstrated elevated anxiety-like behavior compared to both shan-zha- and escitalopram-treated stressed pups; also recorded: the stress-vehicle group demonstrated increased anxiety-like behavior compared to the naïve-vehicle, stress-escitalopram and stress-shan-zha groups
